Data reported in patent US6599938B1, “Compounds having MIF antagonist activity” (The Picower Institute of Medical Research, priority 1999, dated 2003).
Several values for one entry are separate records, joined by “and”; a condition that tells them apart may be missing. Equal entries are not always repeated. Entries after “also recorded” stand apart in the source; their conditions may differ. Where two headings read alike, the source gives them in different places. Values belong to the molecule of their own block, whether it stands above or below them.

Assays:
[1] = target: T1, MIF (Homo sapiens, UniProt P14174); test: MIF dopachrome tautomerase assay; type: biochemical; conditions: for IC50: MIF tautomerase activity, L-dopachrome methyl ester substrate; for MIF antagonist activity: D amino acid compounds compared with compounds 8-10
T1 sequence (P14174 2-115 limits assumed): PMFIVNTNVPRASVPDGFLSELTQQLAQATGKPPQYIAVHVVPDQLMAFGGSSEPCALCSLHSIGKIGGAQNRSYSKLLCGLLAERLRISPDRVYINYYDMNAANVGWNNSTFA

[2] = system: primary murine embryonic fibroblasts; test: Neutralization of rMIF rescue from serum-withdrawal apoptosis; type: cell-based; conditions: serum-free + rMIF 50 ng/ml; for neutralizing MIF-mediated protection from apoptosis (persistence of apoptosis despite rMIF): FIG. 2, test compound 1 or 10 μM, compared with anti-MIF mAb
Description: FIG. 2 compares the activity of MIF antagonist agents of the present invention (and more particularly compounds according to Formula I) to neutralize the MIF-mediated protection from apoptosis induced in cultured murine embryonic fibroblasts, which apoptotic response (cell death) is initiated by withdrawal of serum. In this assay, withdrawal of serum initiates an apoptotic response, but the cells can be rescued by addition of recombinant MIF (rMIF) to the culture medium. […] This antagonistic effect on MIF bioactivity in vitro is predictive of clinical utility of the active MIF antagonist agent.
In the illustrative experiments, cultured embryonic fibroblasts are induced to enter apoptosis (cell death) as a result of serum withdrawal. These cultures can be “rescued” by treatment with MIF. Thus, test compounds are conveniently assayed for MIF antagonist activity by reference to the activity of the compounds to neutralize the effect of added MIF in the apoptosis assay; that is, by the persistence of apoptosis (cell death) in serum-free culture conditions despite the addition of MIF. In this regard, anti-MIF antibodies are known to antagonize MIF and serve as a convenient positive control.
Briefly, primary murine embryonic fibroblasts are distributed into 6-well cell culture plates at 2×10^5 cells/well. Cells are subsequently cultured overnight under standard conditions in 10% serum-containing medium (+serum) or in serum-free medium (+serum-free) in the absence or presence of recombinant human MIF (rMIF) at 50 ng/ml. […] Cell lysates are analyzed for apoptosis by any of a variety of convenient methods, such as ELISA for fragmented DNA. Results shown are the mean+/−SD of duplicate samples and are representative of replicated experiments.

[3] = system: quiescent NIH/3T3 fibroblasts; test: Inhibition of MIF-dependent serum-induced proliferation of quiescent NIH/3T3 fibroblasts; type: cell-based; conditions: for MIF inhibitory activity (inhibition of MIF induced proliferation in quiescent NIH/3T3 cell cultures): NIH/3T3 cell proliferation assay

IC50 ([1]; read-out: Inhibition IC50): > 100 µM
SMILES: COC(=O)[C@H](Cc1c[nH]c2ccccc12)N=Cc1ccc(F)cc1 [compound 29]

SMILES: COC(=O)[C@@H](Cc1c[nH]c2ccccc12)N=Cc1ccc(O)cc1 [compound 10b, D-tryptophan/para-hydroxybenzaldehyde Schiff base]
MIF antagonist activity [1]: significantly less MIF antagonist activity | neutralizing MIF-mediated protection from apoptosis (persistence of apoptosis despite rMIF) [2]: but not compound 10b (D-tryptophan/para-hydroxybenzaldehyde Schiff base), was as effective as a monoclonal anit-MIF antibody treatment at neutralizing rMIF

IC50 ([1]; read-out: Inhibition IC50): > 100 µM
SMILES: COC(=O)[C@H](Cc1ccc(O)cc1)N=Cc1ccc(F)cc1 [compound 24]

IC50 ([1]; read-out: Inhibition IC50): > 100 µM
SMILES: COC(=O)C(Cc1ccc(O)cc1)N=Cc1ccc(O)c(O)c1 (centres unmarked) [compound 21]

SMILES: COC(=O)[C@@H](Cc1ccccc1)N=Cc1ccc(O)cc1 [compound 8b]
MIF antagonist activity [1]: significantly less MIF antagonist activity

IC50 ([1]; read-out: Inhibition (IC50)): ~50 µM and 50 µM
SMILES: COC(=O)[C@H](Cc1ccccc1)N=Cc1ccc(O)cc1 [compound 8, L-PheME/parahydroxybenzaldehyde Schiff base]
MIF inhibitory activity (inhibition of MIF induced proliferation in quiescent NIH/3T3 cell cultures) [3]: Neither compound 8 (corresponding to L-PheME/parahydroxybenzaldehyde Schiff base) nor compound 10b (corresponding to D-TrpME/parahydroxybenzaldehyde Schiff base) exhibited anti-MIF biological activity

IC50 ([1]; read-out: Inhibition IC50): > 100 µM
SMILES: COC(=O)C(Cc1ccc(O)cc1)N=Cc1cccc(O)c1O (centres unmarked) [compound 20]

IC50 ([1]; read-out: Inhibition (IC50)): ~10 µM and 10 µM
SMILES: COC(=O)[C@H](Cc1ccc(O)cc1)N=Cc1ccc(O)cc1 [compound 9, L-TyrME/parahydroxybenzaldehyde Schiff base]
MIF inhibitory activity (inhibition of MIF induced proliferation in quiescent NIH/3T3 cell cultures) [3]: exhibited MIF inhibitory activity

IC50 ([1]; read-out: Inhibition IC50): > 100 µM
SMILES: COC(=O)C(Cc1ccc(O)cc1)N=Cc1ccccc1O (centres unmarked) [compound 18]

SMILES: COC(=O)[C@H](Cc1c[nH]c2ccccc12)N=Cc1ccc(O)cc1 [compound 10]
suppression of serum-induced cell proliferation ([3]; FIG. 1, 10 μM, 10% serum, [3H]-thymidine incorporation, compared with anti-MIF mAb 100 μg/ml): as effective an MIF antagonist as a neutralizing anti-MIF monoclonal antibody | MIF inhibitory activity (inhibition of MIF induced proliferation in quiescent NIH/3T3 cell cultures) [3]: exhibited MIF inhibitory activity | antagonism of the bioactivity of MIF in apoptosis assay ([2]; 10 μM): significantly antagonizes the bioactivity of MIF | neutralizing MIF-mediated protection from apoptosis (persistence of apoptosis despite rMIF) [2]: as effective an MIF antagonist agent as is a neutralizing anti-MIF monoclonal antibody; also recorded: as effective as a monoclonal anit-MIF antibody treatment at neutralizing rMIF; also recorded: dose-related effect

IC50 ([1]; read-out: Inhibition (IC50)): > 100 µM
SMILES: COC(=O)CN=Cc1ccc(O)cc1 [compound 1]
